Test results taken from patent US20200276181A1, “THIENOISOQUINOLINES AND THEIR DERIVATIVES FOR TARGETING TUBULIN, CH-TOG, AURORA A KINASE, TPX2, CDK5RAP2 AND/OR ASPM” (VALORBEC, SEC, priority 2017, published 2020).

What was measured:
[1] = tested on: HeLa, A549 and HCT116 cancer cells compared to HFF-1 non-cancer cells; experiment: Selective toxicity, high-throughput automated analysis; format: cell-based; conditions: A549, HCT116 vs HFF-1
Method: (§1) FIG. 1A) is a line graph showing changes in the percentage of viable HFF-1, HeLa, A549 and HCT 116 cells after treatment with a range of C75 concentrations for 3 population doubling times (N=3). […] There were more rounded mitotic cells after C75 treatment in comparison to the control. FIG. 1C) is a line graph showing the percentage of HeLa and HFF1 cells in mitosis after treatment with various concentrations of C75 for 8 hours. The bars indicate standard deviation. FIG. 1D) is a series of images showing cells that were fixed and co-stained for tubulin (microtubules) and DAPI (DNA). Treatment of HeLa cells with 300 nM C75 caused the mitotic spindles to be disorganized, while they were not affected in HFF1 cells. […] The scale bar for the cells is 10 μm. […] FIG. 1F) is a cartoon schematic showing the key features of a metaphase cell.
(§2) The images in FIG. 1B) show fields of view of HeLa cells treated with (dimethyl sulfoxide) DMSO or 500 nM of C75. […] Higher concentrations of C75 caused spindle phenotypes in HFF1 cells, but they were quite different in comparison to HeLa cells (FIG. 1D).

HeLa cells = experiment: Spindle morphology, fixed cells stained for tubulin and DAPI; format: cell-based, human
Method: as §1, §2

HFF1 cells = experiment: as above; format: cell-based; conditions: 300 nM
Method: as §1, §2

HFF1 (non-cancer) cells = experiment: Percentage of mitotic cells, nocodazole +/- C75; format: cell-based; conditions: 200 nM C75 + 33 or 66 nM nocodazole
Method: FIG. 3A) is a line graph showing cytotoxicity of HeLa cells after treatment with varying concentrations of C75+/−a subthreshold dose of paclitaxel (Taxol™; 3 nM). The IC50 is shown by the dotted line. Bars show standard deviation. […] The bars indicate standard deviation. FIG. 3C) is a series of bar graphs showing the proportion of HCT 116 cells with bipolar aligned (grey), bipolar misaligned (dark grey), multipolar/fragmented (light grey, top portion of each bar) or monopolar (black) spindles 7 hours after treatment with control (DMSO), varying concentrations of paclitaxel or C75, or both as indicated (n=691; N=3). The bars show standard deviation. The combination treatments were compared to paclitaxel and C75 on their own by calculating ratios varying from the predicted ratio, and found to synergize at 100 and 200 nM. FIG. 3D) is bar graph showing the average distance between centrosome fragments in HCT116 cells after treatments as shown. While centrosome fragments moved closer together with increased concentrations of paclitaxel, they moved further apart with increased concentrations of C75 (n=105; N=3). […] FIG. 3F) is a line graph showing the percentage of mitotic HeLa or HFF1 cells treated with a range of nocodazole concentrations+/−C75 as indicated. The bars indicate standard deviation. […]

For COc1ccc(S(=O)(=O)N2Cc3ccccc3-c3sc(Br)cc32)cc1 [Compound C75], the “toxicity in cancer cells compared to HFF-1 non-cancer cells” value [1] was “selectively cause toxicity”, the mitotic spindle morphology (HeLa cells; 300 nM) was “spindle organization was perturbed” and the mitotic spindle morphology (HeLa cells; 750 nM) was “Centrosomes were fragmented or declustered and microtubules were completely absent”. For the same compound, the mitotic spindle morphology (HFF1 cells) was “not affected” and the “change in proportion of mitotic cells” value (HFF1 (non-cancer) cells) was “no change”.
